Laboratory results: patent publication US20100120679A1, “Targeting NBS1-ATM Interaction To Sensitize Cancer Cells To Radiotherapy And Chemotherapy” (SOUTHERN RESEARCH INSTITUTE, priority 2006, published 2010)
Ends that are not written are not given here. Peptide text beside a SMILES is read from it. * marks the point of attachment. Biotin = O=C1N[C@H]2[C@H](CS[C@H]2CCCCC(=O)*)N1

Assays:
[1] = test system: Hela cells; details: cited from earlier work
[2] = test system: NBS1 phosphorylation on serine 343 in HeLa cells; test: IR-induced NBS1 pSer343 focus formation, HeLa; format: cell-based, human
Description: (§1) Error bars represent +/−1 SD, graphed are the mean of three independent experiments.
To further support the idea that wtNIP can inhibit ATM-mediated DNA damage pathways, IR-induced NBS1 focus formation, an event considered to be an ATM-dependent process at the sites of DSBs (Lim et al., 2000) was investigated. NBS1 foci are a result of ATM-mediated NBS1 phosphorylation on serine 343. […] The average number of foci in mock-irradiated HeLa cells was 6, 8, and 6 for R9, wtNIP, and scNIP, respectively.

[3] = test system: HeLa cells; test: Peptide internalization by immunofluorescence microscopy (fluorescein-conjugated streptavidin); format: cell-based, human; details: 10 μM for 1 h
Experimental: First, the internalization of the peptides was evaluated. Cells treated with the peptide were probed with a fluorescein-conjugated streptavidin antibody to determine the presence of the biotinylated peptides.

[4] = target: T1, NBS1-ATM interaction (Homo sapiens, UniProt Q13315); test: Co-immunoprecipitation of ATM with NBS1 in peptide-treated cells; format: cell-based; details: HeLa cells, four hours after peptide treatment, unirradiated
T1 construct: endogenous in cells; host or cells: HeLa
Experimental: HeLa cells treated with the NIP peptides were irradiated (0 or 6Gy). Immunoprecipitation was performed with a rabbit NBS1 antibody, and Western blotting was performed with monoclonal antibodies against ATM, NBS1 or MRE11.
Immunoprecipitation and Western blotting: For co-immunoprecipitation of ATM, NBS1 and MRE11, cells were lysed 1 hour in ice-cold lysis buffer, which consisted of 10 mM Tris-HCl (pH 7.5), 100 mM NaCl, 5 mM EDTA, 0.5% NP-40, 5 mM Na3VO4, 1 mM NaF, and 1 mM PMSF. After centrifugation, supernatants were incubated with indicated antibodies. After extensive washing with the lysis buffer, immunoprecipitates were analyzed by immunoblot using specific antibodies. For western blotting analysis, samples (cell lysates or immunoprecipitates) were separated on 4-12% SDS-poly-acrylamide gels, transferred to nitrocellulose membranes, and probed with various antibodies.
wtNIP Abrogated the NBS1-ATM Interaction: To investigate whether R9-conjugated NIP peptides could inhibit NBS1-ATM interactions, coimmunoprecipitation experiments were performed in cells treated with the NIP peptides. Four hours after peptide treatment, HeLa cells were harvested and subjected to immunoprecipitation using an anti-NBS1 antibody. The immunoprecipitates were then blotted with anti-ATM, NBS1, and MRE11 antibodies.

[5] = test system: HeLa cells; test: Length of time the peptides remain in cells (degradation, immunofluorescence)
Experimental: HeLa cells were treated with 10 μM R9, wtNIP, or scNIP for one hour and harvested at indicated time points before they were analyzed by immunofluorescence microscopy staining with an […].
Immunofluorescence microscopy: Exponentially growing cultures of cells were plated on sterile, […] coverslips, and incubated for 24 hours at 37° C. in 5% CO2 humidified air before they are treated with the NIP peptides at room temperature. Coverslips were washed with PBS and fixed with 4% paraformaldehyde-0.25% Triton X-100 for 15 minutes at room temperature, blocked for 30 minutes at room temperature, and incubated with FITC-conjugated streptavidin or anti-γH2AX and phospho-NBS1 antibodies (Rockland Immunochemicals, Gilbertsville, Pa.) for 1 hour at room temperature. Coverslips were then mounted with Vectashield Elite (Vector Labs, Burlingame, Calif.) and observed with a Leica fluorescence microscope. Images were captured at 40× magnification using a Q Imaging Retiga Exi digital camera and analyzed with Image Pro-Plus 5.1 software.
Because the peptides would be used in radiation studies, the length of time the peptides remain in cells was determined to ensure that the peptides would be present throughout the DNA repair process after IR.

[6] = test system: γ-H2AX foci in HeLa cells; test: IR-induced γ-H2AX focus formation, HeLa; format: cell-based, human; details: 10 μM peptide, 30 minutes after 6Gy IR
Description: as §1
(§2) wtNIP Inhibits IR-Induced γ-H2AX and NBS1 pSer343 Focus Formation: One of the earliest responses to IR-induced DNA damage is the formation of γ-H2AX foci, which requires functional ATM (Burma et al., 2001; Furuta et al., 2003). […] Immunofluorescence microscopy was used to detect the presence of γ-H2AX foci in mock-irradiated or irradiated cells in the presence of R9, wtNIP or scNIP. […] Therefore, IR-induced γ-H2AX focus formation can be inhibited by wt-NIP.

[7] = test system: HeLa cells; test: Colony formation assay (radiosensitivity), HeLa
Experimental: Shown in A (HeLa), C (MO59J) and D (GM9607) are the susvival curves after indicated doses of radiation. Error bars represent +/−1 SEM, graphed are the mean of three independent experiments.
Colony formation assays: To determine the radiosensitivity, the colony forming assay was incorporated. Cells were harvested with 0.125% trypsin-0.05% EDTA, pelleted and re-suspended in 1 ml fresh media with a 22 g needle to disperse clumps prior to hemocytometer counting in trypan blue. Cells were then plated at limiting dilutions in […] and allowed to adhere overnight. Cultures were treated with PBS, R9, wtNIP, or scNIP for 1 hour, and irradiated (0-6Gy). Fresh peptides were added every four hours until 24 hours after IR, when the medium was replaced with peptide-free medium. Cultures were incubated for 10-12 days, harvested and stained with 0.5% crystal violet in methanol. Colony number was determined with a dissecting microscope. A population of >50 cells was counted as one colony, and the number of colonies was expressed as a percentage of the value for untreated mock irradiated control cells. The surviving curves were plotted by linear regression analyses and the D0 value represents the radiation dose that leads to 37% of survival. To determine the radiosensitizing potential of the peptides in comparison to other small molecule inhibitors, the sensitizing enhancement ratio (SER) was calculated based on the dose of radiation required to reduce survival to 37% in the presence of scNIP or wtNIP. The following formula was used: […]
Statistics: To establish statistical significance, Student's t-test was incorporated. The data were first fit to each experimental group over a dose range of 0-6Gy. Significant differences were established at p<0.05.
FIG. 6A depicts the survival curves for HeLa cells treated with R9, wtNIP, or scNIP over a dose range of 0 to 6 Gy.

[8] = test system: γ-H2AX foci in DU-145 cells; test: IR-induced γ-H2AX focus formation, DU-145; format: cell-based, human; details: 10 μM peptide, 6Gy
Description: as §1, §2

[9] = target: ATM (human, UniProt Q13315 2-3056); test: cell-based or functional assay
Chain of ATM (Q13315 other isoform, or with tags, fused parts or gaps limits assumed): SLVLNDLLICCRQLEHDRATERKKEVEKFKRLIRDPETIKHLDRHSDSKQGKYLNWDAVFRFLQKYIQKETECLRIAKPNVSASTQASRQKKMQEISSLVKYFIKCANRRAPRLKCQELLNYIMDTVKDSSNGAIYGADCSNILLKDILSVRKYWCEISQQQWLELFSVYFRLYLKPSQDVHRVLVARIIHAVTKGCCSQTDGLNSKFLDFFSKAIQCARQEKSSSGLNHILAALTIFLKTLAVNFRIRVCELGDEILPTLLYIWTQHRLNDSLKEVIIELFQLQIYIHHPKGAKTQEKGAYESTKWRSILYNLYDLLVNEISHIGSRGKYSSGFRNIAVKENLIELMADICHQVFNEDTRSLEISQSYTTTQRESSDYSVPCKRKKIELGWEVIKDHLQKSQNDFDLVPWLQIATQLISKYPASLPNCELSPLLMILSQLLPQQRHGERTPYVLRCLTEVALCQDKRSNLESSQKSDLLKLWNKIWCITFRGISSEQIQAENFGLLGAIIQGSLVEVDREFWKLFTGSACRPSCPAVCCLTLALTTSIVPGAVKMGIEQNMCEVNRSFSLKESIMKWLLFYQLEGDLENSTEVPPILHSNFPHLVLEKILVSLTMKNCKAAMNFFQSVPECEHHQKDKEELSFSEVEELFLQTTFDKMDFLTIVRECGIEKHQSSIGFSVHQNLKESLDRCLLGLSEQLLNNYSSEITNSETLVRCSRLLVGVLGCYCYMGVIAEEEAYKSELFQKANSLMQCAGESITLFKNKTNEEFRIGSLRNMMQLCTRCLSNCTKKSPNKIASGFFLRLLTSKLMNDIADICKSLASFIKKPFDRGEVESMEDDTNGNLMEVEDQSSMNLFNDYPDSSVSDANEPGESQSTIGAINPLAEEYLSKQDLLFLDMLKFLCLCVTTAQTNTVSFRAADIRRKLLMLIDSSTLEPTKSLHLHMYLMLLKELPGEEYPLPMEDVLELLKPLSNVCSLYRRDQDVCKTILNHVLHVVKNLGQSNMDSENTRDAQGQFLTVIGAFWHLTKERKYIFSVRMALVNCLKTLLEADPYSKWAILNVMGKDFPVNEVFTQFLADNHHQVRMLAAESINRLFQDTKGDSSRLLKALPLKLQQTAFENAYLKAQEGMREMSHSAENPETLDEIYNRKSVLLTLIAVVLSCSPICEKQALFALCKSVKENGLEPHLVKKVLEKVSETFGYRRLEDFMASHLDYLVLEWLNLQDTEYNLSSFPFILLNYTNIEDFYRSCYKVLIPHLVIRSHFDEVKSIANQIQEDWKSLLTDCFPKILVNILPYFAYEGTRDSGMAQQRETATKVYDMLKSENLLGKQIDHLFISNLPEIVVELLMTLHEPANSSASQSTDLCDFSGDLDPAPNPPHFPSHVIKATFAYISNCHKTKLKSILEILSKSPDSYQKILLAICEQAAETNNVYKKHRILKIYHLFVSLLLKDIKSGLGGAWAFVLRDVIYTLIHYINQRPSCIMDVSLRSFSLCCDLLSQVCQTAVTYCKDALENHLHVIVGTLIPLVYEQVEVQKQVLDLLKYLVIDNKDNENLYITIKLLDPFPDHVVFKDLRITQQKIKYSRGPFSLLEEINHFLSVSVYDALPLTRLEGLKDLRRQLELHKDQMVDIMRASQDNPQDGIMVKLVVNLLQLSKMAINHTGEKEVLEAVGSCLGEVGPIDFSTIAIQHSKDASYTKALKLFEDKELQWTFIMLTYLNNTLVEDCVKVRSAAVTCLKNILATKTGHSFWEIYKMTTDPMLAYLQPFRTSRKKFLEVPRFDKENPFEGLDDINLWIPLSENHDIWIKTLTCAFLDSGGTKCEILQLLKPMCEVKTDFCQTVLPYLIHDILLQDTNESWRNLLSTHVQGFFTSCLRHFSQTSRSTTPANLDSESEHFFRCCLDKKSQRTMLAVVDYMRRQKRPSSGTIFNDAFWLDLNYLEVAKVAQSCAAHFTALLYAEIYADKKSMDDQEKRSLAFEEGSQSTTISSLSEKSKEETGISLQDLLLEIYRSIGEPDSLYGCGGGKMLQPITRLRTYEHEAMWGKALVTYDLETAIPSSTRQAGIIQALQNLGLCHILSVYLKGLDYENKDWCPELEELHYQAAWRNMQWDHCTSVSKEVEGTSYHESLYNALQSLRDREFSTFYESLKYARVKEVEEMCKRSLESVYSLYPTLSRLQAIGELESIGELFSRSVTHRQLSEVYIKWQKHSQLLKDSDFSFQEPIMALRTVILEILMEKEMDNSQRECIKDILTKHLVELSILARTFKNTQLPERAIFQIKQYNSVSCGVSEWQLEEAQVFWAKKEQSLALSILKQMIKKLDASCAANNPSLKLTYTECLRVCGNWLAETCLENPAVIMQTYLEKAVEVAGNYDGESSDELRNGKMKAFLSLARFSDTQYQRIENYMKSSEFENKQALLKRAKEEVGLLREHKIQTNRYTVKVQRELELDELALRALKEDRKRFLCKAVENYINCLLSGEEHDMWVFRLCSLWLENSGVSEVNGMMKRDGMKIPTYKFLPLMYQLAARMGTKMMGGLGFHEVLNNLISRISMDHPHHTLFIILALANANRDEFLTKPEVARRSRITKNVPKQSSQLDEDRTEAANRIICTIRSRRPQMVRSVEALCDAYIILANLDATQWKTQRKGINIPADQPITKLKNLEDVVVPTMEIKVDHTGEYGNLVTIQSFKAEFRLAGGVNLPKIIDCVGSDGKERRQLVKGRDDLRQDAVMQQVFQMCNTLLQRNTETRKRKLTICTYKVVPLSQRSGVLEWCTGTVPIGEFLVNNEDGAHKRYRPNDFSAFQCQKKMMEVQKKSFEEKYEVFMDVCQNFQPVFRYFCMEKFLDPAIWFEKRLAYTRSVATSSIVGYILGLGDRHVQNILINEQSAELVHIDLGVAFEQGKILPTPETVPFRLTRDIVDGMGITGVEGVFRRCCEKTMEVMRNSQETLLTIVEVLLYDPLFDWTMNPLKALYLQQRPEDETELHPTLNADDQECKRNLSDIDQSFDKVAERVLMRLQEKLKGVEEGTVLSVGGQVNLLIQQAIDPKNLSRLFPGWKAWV

Molecule: O=c1cc(-c2cccc3c2Sc2ccccc2S3)oc(N2CCOCC2)c1 [KU55933]
- radiosensitivity ([1]; Hela cells): significant increase in radiosensitivity
- increase in sensitivity to etoposide [1]: ≤ 35.5 fold

Molecule: CC(C)C[C@H](NC(=O)[C@H](CCC(=O)O)NC(=O)[C@H](CCC(=O)O)NC(=O)[C@H](CC(C)C)NC(=O)[C@H](CC(=O)O)NC(=O)[C@H](C)NC(=O)[C@H](CC(=O)O)NC(=O)[C@H](CO)NC(=O)[C@H](CCCNC(=N)N)NC(=O)[C@H](CCCNC(=N)N)NC(=O)[C@H](CCCNC(=N)N)NC(=O)[C@H](CCCNC(=N)N)NC(=O)[C@H](CCCNC(=N)N)NC(=O)[C@H](CCCNC(=N)N)NC(=O)[C@H](CCCNC(=N)N)NC(=O)[C@H](CCCNC(=N)N)NC(=O)[C@H](CCCNC(=N)N)NC(=O)CCCC[C@@H]1SC[C@@H]2NC(=O)N[C@@H]21)C(=O)N[C@@H](CCCCN)C(=O)O [scNIP] (Biotin-RRRRRRRRRSDADLEELK-OH)
- NBS1 pSer343 foci per nucleus ([2]; HeLa cells after treatment with 6-Gy IR): 31 foci per nucleus
- average number of NBS1 pSer343 foci ([2]; mock-irradiated HeLa cells): 6
- cellular uptake of peptide [3]: significant cellular uptake of peptide
- localization of internalized peptide [3]: cytoplasmic and nuclear compartments
- ATM-NBS1 association (anti-NBS1 immunoprecipitation, anti-ATM blot) [4]: did not affect the NBS1-ATM interaction
- fluorescent intensity levels of peptide in cells ([5]; 8 hours): much weaker
- peptide staining in cells ([5]; 12 hours): much weaker cytoplasmic staining with no observed nuclear staining
- peptide staining in cells ([5]; 24 hours): no detectable presence of the peptides
- presence of peptides in cells ([5]; within 2 hours of treatment): strong distribution
- fluorescent intensity levels of peptide in cells ([5]; within 4 hours): began to decrease
- average number of γ-H2AX foci/nucleus [6]: 41 foci/nucleus
- D0 (mean lethal dose required for 37% survival) [7]: 3.0
- effect of peptide on clonogenic survival ([7]; 10 μM peptide): no significant difference between treatment groups
- effect on radiosensitivity / IR-induced survival ([7]; dose range 0 to 6 Gy): Neither R9 nor scNIP affects radiosensitivity
- IR-induced γ-H2AX focus formation [8]: did not affect IR-induced focus formation

Molecule: Biotin-RRRRRRRRRKEESLADDLF [wild-type NBS1 inhibitory peptide (wtNIP)]
- SER (sensitizing enhancement ratio), DU-145 [9]: 1.46
- SER (sensitizing enhancement ratio), HeLa [9]: 1.58
- SER (sensitizing enhancement ratio), M059J cells (defective DNA-PKcs) [9]: 1.83
- sensitizer enhancement ratio at 2Gy, HeLa [9]: 1.66
- sensitizer enhancement ratio at 4Gy, HeLa [9]: 2.61
- sensitizer enhancement ratio at 6Gy, HeLa [9]: 3.12
